Here are results for 3 molecules from PubChem BioAssay AID1963867 (Molecular Pharmacology Branch, DTP, NCI, 2024).

The subject of the assay is KRAS-mutant PDC tumor spheroid with HUVEC/MSC, viability. The assay is described as follows: Anticancer human tumor 327498-153-R-J2-PDC patient-derived uterine carcinosarcoma cell line growth inhibition [KRAS2]. The settings on record: for IC50: curve of first compound; for viability, T/C: stronger effect = lower value. An outline of the steps:
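KRAS-mutant tumor cells were grown as spheroids with HUVEC endothelial cells and human MSCs as stroma. Targeted agents were tested alone and with KRAS pathway inhibitors. Doses started at or near clinical Cmax, or 10 microM, descending half-log.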

[1] abbreviates: second compound 0.1 µM, first compound 0.0316 µM.
Setting [2] is: second compound 0.1 µM, first compound 0.1 µM.
Where [3] appears, read: second compound 0.1 µM, first compound 0.316 µM.
[4] abbreviates: second compound 0.1 µM, first compound 1 µM.
The mark [5] stands for this setting: second compound 0.1 µM, first compound 3.16 µM.
[6] abbreviates: second compound 0.1 µM, first compound 10 µM.
[7] abbreviates: second compound 0.316 µM, first compound 0.0316 µM.
The mark [8] stands for this setting: second compound 0.316 µM, first compound 0.1 µM.
Setting [9] is: second compound 0.316 µM, first compound 0.316 µM.
The mark [10] stands for this setting: second compound 0.316 µM, first compound 1 µM.
The mark [11] stands for this setting: second compound 0.316 µM, first compound 3.16 µM.
The mark [12] stands for this setting: second compound 0.316 µM, first compound 10 µM.
The mark [13] stands for this setting: second compound 1 µM, first compound 0.0316 µM.
The mark [14] stands for this setting: second compound 1 µM, first compound 0.1 µM.
The mark [15] stands for this setting: second compound 1 µM, first compound 0.316 µM.
[16] abbreviates: second compound 1 µM, first compound 1 µM.
Where [17] appears, read: second compound 1 µM, first compound 3.16 µM.
[18] abbreviates: second compound 1 µM, first compound 10 µM.
Where [19] appears, read: second compound 3.16 µM, first compound 0.0316 µM.
The mark [20] stands for this setting: second compound 3.16 µM, first compound 0.1 µM.
Where [21] appears, read: second compound 3.16 µM, first compound 0.316 µM.
Where [22] appears, read: second compound 3.16 µM, first compound 1 µM.
[23] abbreviates: second compound 3.16 µM, first compound 3.16 µM.
[24] abbreviates: second compound 3.16 µM, first compound 10 µM.
[25] abbreviates: second compound 10 µM, first compound 0.0316 µM.
[26] abbreviates: second compound 10 µM, first compound 0.1 µM.
[27] abbreviates: second compound 10 µM, first compound 0.316 µM.
The mark [28] stands for this setting: second compound 10 µM, first compound 1 µM.
Setting [29] is: second compound 10 µM, first compound 3.16 µM.
The mark [30] stands for this setting: second compound 10 µM, first compound 10 µM.

Usually IC50 stands for the midpoint of a concentration-inhibition curve. The viability, T/C is the result in the treated group divided by that in the control group, in per cent.
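Note: spheroids exposed to agents for seven days before reading.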
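Throughout, for viability, T/C: 100% = DMSO vehicle wells so lower means fewer viable cells.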

For the molecule `Cn1nccc1Nc1nccc(-c2cc3c(s2)C(C)(C)N(CCN2CCOCC2)C3=O)n1` + CC1OCC2(CCN(c3cnc(Sc4ccnc(N)c4Cl)c(N)n3)CC2)C1N, the IC50 (second compound 0.1 µM) was 644 nM; the IC50 (second compound 0.316 µM) was found to be 61.1 nM; the IC50 (second compound 1 µM) is less than 31.6 nM; the IC50 (second compound 3.16 µM) is less than 31.6 nM; the IC50 (second compound 10 µM) is less than 31.6 nM. Besides, the viability, T/C was 74.2% under setting [1]; 60.7% under setting [2]; 59.1% under setting [3]; 45.6% under setting [4]; 39.1% under setting [5]; 36.5% under setting [6]. Besides, the viability, T/C is, setting by setting: under setting [7], 53.4%; under setting [8], 47%; under setting [9], 43.2%; under setting [10], 40.4%; under setting [11], 38.1%; under setting [12], 27.6%. Further, the viability, T/C under setting [13] was 37.8%; the viability, T/C under setting [14] was 39.9%; the viability, T/C under setting [15] was 32.1%; the viability, T/C under setting [16] was 30.8%; the viability, T/C under setting [17] is 28.6%; the viability, T/C under setting [18] is 26.4%. Also, the viability, T/C was 30.3% under setting [19]; 29.7% under setting [20]; 25.3% under setting [21]; 22.2% under setting [22]; 21.9% under setting [23]; 19.9% under setting [24]. The viability, T/C is, setting by setting: under setting [25], 23.3%; under setting [26], 22.2%; under setting [27], 16.9%; under setting [28], 15.8%; under setting [29], 17.1%; under setting [30], 15.9%.
`C=CC(=O)N1CCN(c2nc(OCC3CCCN3C)nc3c2CCN(c2cccc4cccc(C)c24)C3)CC1CC#N` (configuration not stated): the viability, T/C by setting is: (compound 0.316 µM) 57.6% [middle of 16 runs]; (compound 1 µM) 49.2% [middle of 17 runs].
Consider `COC(=O)c1ccc2c(C(=Nc3ccc(N(C)C(=O)CN4CCN(C)CC4)cc3)c3ccccc3)c(O)[nH]c2c1` + CNCc1ccccc1-c1csc(C(C)Nc2nc(C)nc3cc(OC)c(OC)cc23)c1, for which the IC50 is 519 nM (second compound 0.1 µM); 308 nM (second compound 0.316 µM); 153 nM (second compound 1 µM); less than 31.6 nM (second compound 3.16 µM); less than 31.6 nM (second compound 10 µM). Also, the viability, T/C was 73.5% under setting [1]; 69.9% under setting [2]; 58.6% under setting [3]; 38.7% under setting [4]; 10.9% under setting [5]; 8.59% under setting [6]. For the same molecule, the viability, T/C by setting is: under setting [7], 62.9%; under setting [8], 61.4%; under setting [9], 48.8%; under setting [10], 22.6%; under setting [11], 0.98%; under setting [12], 1.62%. In addition, the viability, T/C reads like this: under setting [13], 60.9%; under setting [14], 53%; under setting [15], 41.5%; under setting [16], 18.7%; under setting [17], 0.06%; under setting [18], 0.11%. The viability, T/C by setting is: under setting [19], 0.1%; under setting [20], 0.13%; under setting [21], 0.08%; under setting [22], 0.15%; under setting [23], 0.04%; under setting [24], 0.11%. Besides, the viability, T/C is 0.43% under setting [25]; 0.37% under setting [26]; 0.36% under setting [27]; 0.1% under setting [28]; 1.07% under setting [29]; 0.16% under setting [30].
